Reference: US20140056834A1, “COSMETIC COMPOSITION COMPRISING CHRYSOPHANOL AS ACTIVE INGREDIENT FOR SKIN WHITENING” (PUKYONG NATIONAL UNIVERSITY INDUSTRY-UNIVERSITY C, priority 2012, published 2014)

Columns and labels:
B16F1 cells [1] = assay: Melanin content in α-MSH-stimulated B16F1 cells; assay type: cell-based, mouse; details: α-MSH 100 nM, 72 h
Description: The melanin content was determined in accordance a procedure described previously (Hosoi et al., 1985) with slight modifications.
Briefly, B16F1 cells were seeded at a density of 2×10^4 cells per well in 24-well culture plates and then incubated for 24 h. Then, cells were treated with various concentrations ([…]) of chrysophanol. After 1 h, α-MSH (100 nM) was added and incubated for 72 h. Then, cells were washed twice with PBS and dissolved in 1 N NaOH by 30 min of boiling at 60° C. The cell lysates were centrifuged for 5 min at 5000 g and absorbance of the supernatant was measured at 405 nm.

[2] = test system: tyrosinase protein in mouse melanoma B16F1 cells; assay: Tyrosinase protein expression by western blot analysis; assay type: cell-based; details: α-MSH
Description: For the western blot analysis, B16F1 cells were treated with different concentrations of chrysophanol compound, added with α-MSH, incubated for a predetermined time, and then the cells were lysed with RIPA buffer (Sigma-Aldrich Corp., St. Louis, USA) and centrifuged. After the centrifugation, the same amount (15 μg) of protein in cell lysate supernatants were analyzed on 10% SDS-PAGE and proteins were blotted on an immuno-blot nitro-cellulose membrane and blocked with 5% BSA in TBS containing 0.1% Tween 20 (TBS-T) for at least 1 h and hybridized with the primary monoclonal antibodies (Santa Cruz Biotechnology Inc., CA, USA). All the primary monoclonal antibodies were diluted with TBS-T (1:1000). The protein bindings were detected using the secondary antibody conjugated to horseradish peroxidase and enhanced using chemiluminiscence ECL assay kit (Amersham Pharmacia Biosciences, England, UK) according to the manufacturer's instructions and imaged on a LAS-3000® Luminescent image analyzer (Fujifilm, Life Science, Tokyo, Japan). T

mushroom tyrosinase = assay: Mushroom tyrosinase assay (tyrosinase inhibitory activity); assay type: biochemical; details: L-tyrosine substrate, different concentrations, 30 min at 37° C.
Description: The inhibitory effect on tyrosinase was measured using the spectrophotometric method, based on the hydroxylation of […] in mushroom tyrosinase assay.
A total of 10 μl of each chrysophanol with different concentrations and 20 μl of mushroom tyrosinase (1000 units/ml) in 50 mM phosphate buffer (pH 6.5) were added to 170 μl of an assay mixture containing a ratio of 10:10:9 of 1 mM L-tyrosine solution, 50 mM phosphate buffer (pH 6.5), and distilled water in a 96-well microplate. After 30 min of incubation at 37° C., the absorbance of the mixture was determined at 490 nm using a microplate reader (Tecan Austria GmbH, Austria).

B16F1 cells [3] = assay: Determination of cytotoxicity by MTT method; assay type: cell-based, mouse; details: 10 and 50 μM, 24 h incubation
Description: The mouse melanoma B16F1 cells were acquired from the American Type Culture Collection (ATCC, Manassas, Va.) and were cultured in Dulbecco's modification of eagle's medium (DMEM, GIBCO, New York, USA) containing 100 μg/ml penicillin-streptomycin, […] fetal bovine serum (FBS) and maintained at 37° C., 5% CO2. Cytotoxicity levels of the isolated chrysophanol compound from Microsporum sp. on B16F1 cells were measured using MTT (3-(4,5-dimethyl[…])-2,5-diphenyltetrazolium bromide) method. Briefly, B16F1 cells were cultured in 96-well plates at a density of 5×10^3 cells/well. After 24 h, cells were treated with different concentrations (10, 50, 100 μM) of chrysophanol compound. After the next 24 h of incubation, cells were washed two times with PBS and 100 μl of MTT solution (1 mg/ml) was added to each well. After next 4 h of incubation, MTT solution in each well was removed and then 100 μl of dimethyl-sulfoxide (DMSO) were added to solubilize the formazan salt. The optical density was measured at 540 nm by using UV microplate reader (Tecan Austria GmbH, Groedig, Austria). Relative cell viability was calculated compared to the non-treated blank group.

Cc1cc(O)c2c(c1)C(=O)c1cccc(O)c1C2=O [chrysophanol] was tested, and the “melanin content compared with positive control kojic acid” value (B16F1 cells [1]; B16F1 cells, 50 μM) was “almost the same as that of kojic acid”, the melanin content (B16F1 cells [1]; B16F1 cells, 5, 10, 50 μm chrysophanol) was “decrease in melanin content in B16F1 cells by the treatment of chrysphanol in a dose-dependent manner” and the tyrosinase protein expression ([2]; 20 μM) was “significantly inhibited expression of tyrosinase protein”. The tyrosinase protein expression ([2]; different concentrations) was “dose-dependent inhibition of tyrosinase protein expression”, the tyrosinase inhibitory activity (mushroom tyrosinase) was “tyrosinase inhibitory activity was observed by chrysophanol in a dose-dependent manner” and the “cytotoxicity (relative cell viability, MTT)” value (B16F1 cells [3]) was “no cytotoxicity”.
